“Also recorded” adds a separate entry of the source.
Assays:
[1] = Spooren et al., 2005; cited from earlier work
[2] = target: T1, Nk3R (Mus musculus, UniProt P47937); assay: Tone fear conditioning test (freezing to conditioned tone), osanetant; type: in vivo; set-up: from tissue; host or cells: Living mice (wild-type C57Bl6/N males, Charles River); details: for SIS-induced persistent (post) freezing to fear-conditioned tone: SIS mice; for acute (and thereby persistent) freezing to conditioned threatening stimulus (tone): osanetant injection into CeA; for SIS-induced persistent freezing to conditioned tone: osanetant microinfusion into dBNSTa, 375 ng per site, 20 min before test
T1 sequence (P47937 1-452): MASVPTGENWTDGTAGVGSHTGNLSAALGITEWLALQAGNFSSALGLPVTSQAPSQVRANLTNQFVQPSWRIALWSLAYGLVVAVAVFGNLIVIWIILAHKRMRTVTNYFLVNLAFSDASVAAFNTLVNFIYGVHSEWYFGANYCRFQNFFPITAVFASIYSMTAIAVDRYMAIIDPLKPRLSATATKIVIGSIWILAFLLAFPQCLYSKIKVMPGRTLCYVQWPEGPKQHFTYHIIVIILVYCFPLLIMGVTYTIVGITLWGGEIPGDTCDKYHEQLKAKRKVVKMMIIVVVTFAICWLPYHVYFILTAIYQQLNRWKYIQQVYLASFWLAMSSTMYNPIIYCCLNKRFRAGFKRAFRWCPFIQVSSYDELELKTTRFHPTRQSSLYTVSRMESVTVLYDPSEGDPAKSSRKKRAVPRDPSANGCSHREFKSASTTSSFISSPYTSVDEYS
Method: The protocol for tone trace fear conditioning was performed as previously described (Cushman et al., 2014; incorporated by reference in its entirety) using fear conditioning boxes previously described in detail (Haubensak et al., 2010; Kunwar et al., 2015; incorporated by reference in their entirety). Briefly, mice were transported in squads of four on a white cart to a novel behavioral testing room containing 4 sound-attenuating fear-conditioning chambers (Med Associates). This “training context” was comprised of flat grid flooring (wired to a shock generator and scrambler for footshock delivery, Med Associates), houselights, and the presence of an internal fan for background noise. Chambers were sprayed with 70% Simple Green solution on the underlying chamber pan to generate a unique contextual scent and chambers were cleaned with 70% EtOH between squads. Trace fear conditioning consisted of a 3 minute baseline period followed by 3 tone-shock trials consisting of a 20 second tone conditional stimulus (CS; 75 dB, 2800 Hz), a 20 second trace interval and a 2 second footshock unconditional stimulus (US; 0.7 mA). The inter-trial interval (ITI) between trials was 60 seconds. Mice remained in the chambers an additional 60 seconds before being transported back to the vivarium. The following day, mice were transported in fresh cardboard boxes to a novel behavioral testing room consisting of 4 distinct fear-conditioning boxes to test for tone fear. The “test context” consisted of the houselights and fan turned off, uneven grid flooring, a 1% acetic acid scent and a black plastic insert used to generate a triangular roof. Testing was performed identical to training with the exception that shocks were omitted from test trials to allow for behavior assessment to the tone. A single shock was administered in the last minute of testing to assess activity burst responding to the shock. This allowed assessment of reactivity to the shock under our various manipulations performed during testing without disrupting fear acquisition by performing manipulations during training. All experimental manipulations and data shown herein were performed during the test phase of fear conditioning (training data not shown). Training and testing context were counterbalanced across mice. Freezing behavior during the baseline period as well as during each tone presentation (“during”) and trace interval (“post”) were assessed as previously described (Zelikowsky et al., 2014; incorporated by reference in its entirety) using automated near-infrared video tracking equipment and computer software (VideoFreeze, Med Associates). Shock reactivity (motion, arbitrary units) was measured during the 2 second shock US as well as the 3 seconds immediately following.
(§1) Mice were administered the Nk3R antagonist osanetant (Axon Medchem, Axon 1533) either systemically or intra-brain region. Osanctant was dissolved in saline with 0.1% Tween 20 (vehicle). For systemic administration mice received an intraperitoneal (i.p.) injection (5 mg/kg) 20 minutes prior to behavioral testing. For microinfusions, guide cannulas were removed from mice and replaced with injector cannulas (Plastics One), which protruded 0.5 mm from the tip of the guide cannula. Injectors were attached to 5 μl Hamilton syringes with PE tubing (Plastics One) and mounted on a microinfusion pump (Harvard Apparatus) for controlled infusion of osanetant (0.3 μl vehicle with 375 ng dose per site injected over 6 minutes). For experiments using systemic administration of clozapine-N-oxide (CNO), CNO (Enzo Life Sciences-Biomol, BML-NS105-0005) was dissolved in saline (9 g/L NaCl) and injected (i.p.) at 5 mg/kg for hM4DREADD silencing or 2 mg/kg for hM3DREADD activation 20 minutes prior to behavioral testing. CNO was also administered chronically in drinking water (0.5 mg CNO/100 ml water).

[3] = target: T1, Nk3R; assay: Social interaction assay, osanetant; type: in vivo; set-up: from tissue; host or cells: Living mice (wild-type C57Bl6/N males, Charles River); details: SIS mice; acute systemic osanetant; listed as Osanetant
Method: as §1

[4] = target: T1, Nk3R; assay: Acoustic startle response, osanetant; type: in vivo; set-up: from tissue; host or cells: Living mice (wild-type C57Bl6/N males, Charles River); details: SIS mice; acute systemic osanetant; listed as Osanetant
Method: as §1

## CC(=O)N(C)C1(c2ccccc2)CCN(CCC[C@]2(c3ccc(Cl)c(Cl)c3)CCCN(C(=O)c3ccccc3)C2)CC1 [osanetant, N-(1-{3-[(3R)-1-benzoyl-3-(3,4-dichlorophenyl)piperidin-3-yl]propyl}-4-phenylpiperidin-4-yl)-N-methylacetamide]
[1]
  blood-brain barrier passage: crosses the blood-brain barrier
[2]; osanetant 5 mg/kg i.p. 20 min before test
  SIS-induced persistent (post) freezing to fear-conditioned tone: blocked
[2]; osanetant 5 mg/kg i.p. 20 min before test, listed as Osanetant
  SIS-induced persistent (post) freezing to fear-conditioned tone: attenuated
[2]; osanetant 5 mg/kg i.p. 20 min before test, between groups
  freezing during presentation of conditioned tone (acute): no significant differences
[2]
  acute (and thereby persistent) freezing to conditioned threatening stimulus (tone): reduced
  SIS-induced persistent freezing to conditioned tone: selectively inhibited
[2]; listed as Osanetant
  acute (and thereby persistent) freezing to conditioned threatening stimulus (tone): selectively blocked
  SIS-induced persistent freezing to conditioned tone: selectively blocked
[2]; osanetant microinfusion into DMH
  persistent responses to conditioned tone: had no effect
[3]
  SIS-induced decreased social interaction (time in social zone): blocked; also recorded: attenuated
[4]
  SIS-induced enhanced acoustic startle responding: blocked; also recorded: attenuated
